Reference: patent publication US7205297B2, “Substituted 5-alkynyl pyrimidines having neurotrophic activity” (Krenitsky Pharmaceuticals, Inc., priority 2000, dated 2007)

Tested on: PC12 cells
Test: Choline acetyltransferase (ChAT) assay in NGF-treated PC12 cells
Type: cell-based, rat
Conditions: 3 days incubation with test compound, versus NGF alone
Experimental: Cultured PC12 cells (rat adrenal pheochromocytoma from ATCC) have receptors for NGF. Responses include promotion of neurite outgrowth and elevation of choline acetyltransferase (ChAT) (L. A. Greene and A. S. Tischler, Cell Neurobiol., 3, 373 (1982)).
The following assay is modified from that described in H L White and P W Scates, Neurochem. Res., 16, 63 (1991). PC12 cells were cultured at 37° C. in RPMI supplemented with HEPES buffer, pH7.5 (to 10 mM), fetal bovine serum, horse serum, glutamine, penicillin, streptomycin and non-essential amino acids. Cultures were split 1:3 every 3 to 4 days. Exponentially dividing cells were plated into fresh medium on collagen-coated 12-well plastic dishes (10^5 cells/well). After allowing one day for cell attachment, the medium was replaced with low serum medium, with or without test compounds with each condition in triplicate. The medium may contain up to 0.2% ethanol, which was used as a solvent for most compounds tested. Cells were examined for morphological changes using an Olympus IMT-2 inverted research microscope. After 3 days incubation with test compounds, medium was removed and replaced with 0.2 ml of lysis and ChAT assay mixture. The plates were incubated at 37° C. for 2 hours and then placed into a freezer at −20° C.
Compounds are judged NGF-like in this primary screen if they (1) increase the activity of ChAT, (2) enhance NGF-stimulated neurite outgrowth or (3) potentiate or appear additive with the action of NGF itself.
The assay mixture contained 100 mM phosphate, pH7.4, 0.1% NP40, 150 mM NaCl, 1.5 mM choline, 10 mM EDTA, 0.1 mM eserine, 0.1 mM acetyl-coenzyme A and about 0.5 uCi (40–70 Ci/mol) [14C]acetyl-coenzyme A in each ml of mixture. Thawed and lysed cell reaction mixtures were diluted to 1 ml with water and transferred to 7 ml scintillation vials containing 5 ml of extraction/scintillation fluid solution (50 mg triphenyl borate, 50 mg PPO, 20 mg POPOP per 100 ml of 20% acetonitrile/80% toluene) and vortexed for 10 seconds. After all 20 diluted well contents were transferred and mixed, all the vials were vortexed again for 30 seconds, rotated for about 2 hours, and then vortexed once more. The vials were centrifuged at 3000 rpm (rmax.=16 cm) for 15 minutes and then counted in a Beckman LS6500 scintillation counter. Background counts from reaction mixtures with extracts from non-stimulated cells (no NGF and no test compound) were subtracted from reaction product counts before comparisons of ChAT activities were made.
The following data were obtained for representative compounds of the present invention which (1) increased the activity of choline acetyltransferase ChAT), (2) enhanced NGF-stimulated neurite outgrowth and/or (3) potentiated or appeared additive with the action of NGF itself. The concentration at which the test compound doubled the ChAT activity over the activity with NGF alone (no test compound) was recorded as the EC2x value.

Compound | EC2× (concentration at which the test compound doubled the ChAT activity over the activity with NGF alone)
O[C@H]1CC[C@H](Nc2ncncc2C#Cc2ccc(Cl)cc2)CC1 [Example 4, 5-(4-chlorophenylethynyl)-4-(trans-4-hydroxycyclohexylamino) pyrimidine] | 0.2 µM
Nc1ncc(C#Cc2ccccc2)c(N[C@H]2CC[C@H](O)CC2)n1 [Example 9, 2-amino-4-(trans-4-hydroxycyclohexylamino)-5-phenylethynylpyrimidine] | 0.1 µM
Nc1ncc(C#Cc2ccc(Cl)cc2)c(N[C@H]2CC[C@H](O)CC2)n1 [Example 12, 2-amino-5-(4-chlorophenylethynyl)-4-(trans-4-hydroxycyclohexylamino)pyrimidine] | 0.2 µM
Nc1ncc(C#Cc2ccc(Cl)cc2)c(NCCO)n1 [Example 13, 2-amino-5-(4-chlorophenylethynyl)-4-(2-hyroxyethylamino) pyrimidine] | 0.3 µM
Nc1ncc(C#Cc2ccc(Cl)cc2)c(NCCOCCO)n1 [Example 14, 2-amino-5-(4-chlorophenylethynyl)-4-[2-(2-hydroxyethoxy)ethylamino]pyrimidine] | 0.5 µM
Nc1ncc(C#Cc2ccc(Cl)cc2)c(N[C@H]2CC[C@@H](O)CC2)n1 [Example 23, 2-amino-5-(4-chlorophenylethynyl)-4-(4-cis-hydroxycyclohexylamino)pyrimidine] | 0.3 µM
CCc1ccc(C#Cc2cnc(N)nc2N[C@H]2CC[C@H](O)CC2)cc1.Cl [Example 26, 2-amino-5-(4-ethylphenylethynyl)-4-(4-trans-hydroxycyclohexylamino) pyrimidine hydrochloride] | 0.2 µM

Tested on: not given
Test: not given
Conditions: not given

melting point | Compound
223 to 225 °C (dec.) | Cl.Oc1ccc(Nc2ncncc2C#Cc2ccccc2)cc1
220 to 230 °C (dec.) | COc1ccc(C#Cc2cnc(N)nc2Nc2ccc(O)cc2)cc1.Cl
151 to 155 °C | O[C@H]1CC[C@H](Nc2ncncc2C#Cc2ccc(Cl)cc2)CC1 (hydrate or solvate) [Example 4, 5-(4-chlorophenylethynyl)-4-(trans-4-hydroxycyclohexylamino) pyrimidine]
215 to 218 °C | Nc1ncc(C#Cc2ccc(Cl)cc2)c(N[C@H]2CC[C@H](O)CC2)n1 [Example 12, 2-amino-5-(4-chlorophenylethynyl)-4-(trans-4-hydroxycyclohexylamino)pyrimidine]
176 to 180 °C | Nc1ncc(C#Cc2ccc(Cl)cc2)c(NCCOCCO)n1 [Example 14, 2-amino-5-(4-chlorophenylethynyl)-4-[2-(2-hydroxyethoxy)ethylamino]pyrimidine]
128 to 129 °C | Nc1ncc(C#Cc2ccccc2)c(NCCOCCO)n1 [Example 19, 2-amino-4-[2-(2-hydroxyethoxy)ethylamino]-5-phenylethynyl pyrimidine]
168 to 172 °C | Nc1ncc(C#Cc2ccc(Cl)cc2)c(OC2CCC(=O)CC2)n1 [Example 41, 2-amino-5-(4-chlorophenylethynyl)-4-(4-oxocyclohexyloxy) pyrimidine]
